This experiment concerns the target T1, Mushroom tyrosinase.
T1 construct: gene PPO1; commercial native mushroom preparation (Sigma-Aldrich)
The experiment can be described thus: L-tyrosine to dopachrome, absorbance at […] nm. In kind it is biochemical. The conditions noted are these: L-tyrosine 0.2 mg/ml; 2 µg/ml enzyme; 100 mM phosphate pH 6.8; 5% ethanol; 25 °C; 30 min.

The structures appear in SMILES notation. pIC50: −log10 of the molar value.

Broadly, the pIC50 is the IC50 on a negative log10 scale, so that one unit is a factor of ten. Read a high pIC50 as a small IC50.

In turn, `CC(C)c1ccc(C(=O)CC(Sc2ccc(Cl)cc2)C(=O)O)cc1` (stereo not shown) [Lead1] showed a pIC50 of 5.10.
